Assay results published in patent US5721229A, “Soluble forms of cephalosporins and treatment of animals” (Veterinary Pharmacy Corporation, priority 1995, dated 1998).
Where two headings read alike, the source gives them in different places.

Assays:
[1] = tested on: Actinobacillis pleuropneumonia Type 7
Protocol: (§1) The mixture and solution of the invention was tested in 100 to 200 pound pigs. […] A 30 pig pen was used as a non-treated control group to measure the efficacy of the treatment.

all bacteria = assay: Sensitivity results by the University Diagnostic Laboratory, all bacteria (Example 6 table)
Protocol: as §1

[2] = cited from earlier work
[3] = pH 4.5; cited from earlier work

Protocol for Pasturella multocida: as §1
Description for Step suis type 2: A farm was selected which was known to have problems with Step suis type 2 in its nursery pigs. The experiment involved two groups of 30 pigs, each group was in the same room, but in separate pens. Each pig was individually tagged and a tonsilar swab was done on day one and day seven. Cultures were run on all the swabs.
Protocol for Streptococcus suis Sp.: as §1

For CC1=C(C(=O)O)N2C(=O)[C@@H](NC(=O)[C@H](N)c3ccccc3)[C@H]2SC1 [cephalexin, α-aminobenzyl-3-desacetoxycephalosporin], the Sensitivity to cephalexin [1] was “showed sensitivity”, the Sensitivity to cephalexin (Pasturella multocida) was “showed sensitivity” and the Sensitivity to cephalexin (Streptococcus suis Sp.) was “showed sensitivity”. The “Sensitivity results by the University Diagnostic Laboratory” value (all bacteria; control group of 30 pigs) was “sensitive to cephalexin”, the “Sensitivity results by the University Diagnostic Laboratory” value (all bacteria; treated group of 970 pigs) was “sensitive to cephalexin” and the “Sensitivity of the organism” value (Step suis type 2; isolates from treated group) was “sensitive”. For the same compound, the “Sensitivity of the organism” value (Step suis type 2; isolates from untreated control group) was “sensitive”.

For CC1(C)S[C@@H]2[C@H](NC(=O)[C@H](N)c3ccccc3)C(=O)N2[C@H]1C(=O)O [sodium ampicillin], the “pH of aqueous solution” value ([2]; aqueous solution) is given as about 9.5.

In the case of CC1(C)S[C@@H]2[C@H](NC(=O)[C@H](N)c3ccccc3)C(=O)N2[C@H]1C(=O)O [ampicillin], the “pH on dissolution with sodium carbonate” value ([2]; 95 mole-% of sodium carbonate) is given as 8.3 and the “Mole-% of sodium carbonate sufficient to dissolve” value ([2]; pH 8.3) is given as 95 mole-%.

In the case of CC1=C(C(=O)O)N2C(=O)[C@@H](NC(=O)[C@H](N)c3ccccc3)[C@H]2SC1 [cephalexin monohydrate], the Neutrally charged fraction [3] is listed as 100%.
